Data published in ChEMBL document CHEMBL4043267, “Synthesis of photocaged 6-O-(2-nitrobenzyl)guanosine and 4-O-(2-nitrobenzyl) uridine triphosphates for photocontrol of the RNA transcription reaction” (Bioorg Med Chem, 2017).
Active and inactive are the calls of the source. The calls are words filed in the database; no cut-off is given here.

Experiments:
[1] = biological target: T7 RNA polymerase (Enterobacteria phage T7) (UniProt P00573); test: Inhibition of T7 RNA polymerase assessed as RNA product formation at 5 mM using double stranded DNA as substrate after 4 hrs in presence of NTPs by sybrGOLD staining based fluorescence assay (reference value: 100%); design: scale not given: the % may be the effect or the level left; conditions: Escherichia phage T7
T7 RNA polymerase (Enterobacteria phage T7), sequence (P00573 whole entry): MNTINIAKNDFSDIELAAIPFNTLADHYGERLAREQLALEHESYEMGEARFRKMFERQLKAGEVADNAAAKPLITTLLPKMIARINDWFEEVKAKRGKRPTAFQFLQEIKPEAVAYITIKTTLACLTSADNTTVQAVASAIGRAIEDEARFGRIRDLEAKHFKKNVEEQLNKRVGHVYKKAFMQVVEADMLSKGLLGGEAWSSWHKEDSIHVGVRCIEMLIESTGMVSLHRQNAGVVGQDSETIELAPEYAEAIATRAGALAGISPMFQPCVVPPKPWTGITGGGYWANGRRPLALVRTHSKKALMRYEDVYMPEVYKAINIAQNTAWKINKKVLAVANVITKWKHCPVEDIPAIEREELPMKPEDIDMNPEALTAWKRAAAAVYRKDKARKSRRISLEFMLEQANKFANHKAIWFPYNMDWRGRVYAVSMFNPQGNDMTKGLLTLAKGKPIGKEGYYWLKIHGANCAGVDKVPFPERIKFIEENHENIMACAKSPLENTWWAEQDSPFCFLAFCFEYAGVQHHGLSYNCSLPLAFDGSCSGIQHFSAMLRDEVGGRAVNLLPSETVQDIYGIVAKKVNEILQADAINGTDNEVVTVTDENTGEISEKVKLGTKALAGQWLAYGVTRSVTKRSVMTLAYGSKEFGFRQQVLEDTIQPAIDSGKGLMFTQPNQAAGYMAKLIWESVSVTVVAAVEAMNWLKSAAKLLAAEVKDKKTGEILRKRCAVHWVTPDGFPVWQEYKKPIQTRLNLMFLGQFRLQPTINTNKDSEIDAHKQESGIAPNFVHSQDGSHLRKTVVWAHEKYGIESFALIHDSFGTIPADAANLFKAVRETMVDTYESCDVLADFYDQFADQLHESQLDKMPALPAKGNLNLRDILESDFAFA

[2] = biological target: T7 RNA polymerase (Enterobacteria phage T7) (UniProt P00573); test: Inhibition of T7 RNA polymerase assessed as RNA product formation at 2 mM using double stranded DNA as substrate after 4 hrs in presence of NTPs by sybrGOLD staining based fluorescence assay (reference value: 100%); design: scale not given: the % may be the effect or the level left; conditions: Escherichia phage T7
[3] = biological target: T7 RNA polymerase (Enterobacteria phage T7) (UniProt P00573); test: Inhibition of T7 RNA polymerase assessed as RNA product formation at 0.2 mM using double stranded DNA as substrate after 4 hrs in presence of NTPs by sybrGOLD staining based fluorescence assay (reference value: 100%); design: scale not given: the % may be the effect or the level left; conditions: Escherichia phage T7
[4] = biological target: T7 RNA polymerase (Enterobacteria phage T7) (UniProt P00573); test: Inhibition of T7 RNA polymerase assessed as RNA product formation at 0.5 mM using double stranded DNA as substrate after 4 hrs in presence of ATP/UTP/CTP by sybrGOLD staining based fluorescence assay (reference value: 100%); design: scale not given: the % may be the effect or the level left; conditions: Escherichia phage T7
[5] = biological target: T7 RNA polymerase (Enterobacteria phage T7) (UniProt P00573); test: Inhibition of T7 RNA polymerase assessed as RNA product formation at 1 mM using double stranded DNA as substrate after 4 hrs in presence of NTPs by sybrGOLD staining based fluorescence assay (reference value: 100%); design: scale not given: the % may be the effect or the level left; conditions: Escherichia phage T7
[6] = biological target: T7 RNA polymerase (Enterobacteria phage T7) (UniProt P00573); test: (§1) Inhibition of T7 RNA polymerase assessed as RNA product formation at 2 mM using double stranded DNA as substrate incubated in presence of UV irradiation for 5 secs followed by enzyme addition measured after 4 hrs in presence of NTPs by sybrGOLD staining based fluorescence assay relative to control; design: scale not given: the % may be the effect or the level left; conditions: Escherichia phage T7
[7] = biological target: T7 RNA polymerase (Enterobacteria phage T7) (UniProt P00573); test: Inhibition of T7 RNA polymerase assessed as RNA product formation at 2 mM using double stranded DNA as substrate incubated in presence of UV irradiation for 10 secs followed by enzyme addition measured after 4 hrs in presence of NTPs by sybrGOLD staining based fluorescence assay relative to controll; design: scale not given: the % may be the effect or the level left; conditions: Escherichia phage T7
[8] = biological target: T7 RNA polymerase (Enterobacteria phage T7) (UniProt P00573); test: as §1, with “assessed as reduction in RNA product” for “assessed as RNA product”, “irradiation for 40 secs followed” for “irradiation for 5 secs followed”; design: scale not given: the % may be the effect or the level left; conditions: Escherichia phage T7
[9] = biological target: T7 RNA polymerase (Enterobacteria phage T7) (UniProt P00573); test: as §1, with “assessed as reduction in RNA product” for “assessed as RNA product”, “irradiation for 60 secs followed” for “irradiation for 5 secs followed”; design: scale not given: the % may be the effect or the level left; conditions: Escherichia phage T7
[10] = biological target: T7 RNA polymerase (Enterobacteria phage T7) (UniProt P00573); test: Inhibition of T7 RNA polymerase assessed as RNA product formation at 2 mM using double stranded DNA as substrate incubated in presence of UV irradiation for 20 secs followed by enzyme addition measured after 4 hrs in presence of NTPs by sybrGOLD staining based fluorescence assay relative to control; design: scale not given: the % may be the effect or the level left; conditions: Escherichia phage T7
[11] = biological target: T7 RNA polymerase (Enterobacteria phage T7) (UniProt P00573); test: Inhibition of T7 RNA polymerase assessed as RNA product formation at 2 mM using double stranded DNA as substrate incubated in presence of UV irradiation for 1 sec followed by enzyme addition measured after 4 hrs in presence of NTPs by sybrGOLD staining based fluorescence assay relative to control; design: scale not given: the % may be the effect or the level left; conditions: Escherichia phage T7
[12] = biological target: T7 RNA polymerase (Enterobacteria phage T7) (UniProt P00573); test: (§2) Inhibition of T7 RNA polymerase assessed as reduction in RNA product formation using double stranded DNA as substrate after 4 hrs in presence of NTPs by sybrGOLD staining based fluorescence assay (reference value: 100%); conditions: Escherichia phage T7
T7 RNA polymerase = T7 RNA polymerase (Enterobacteria phage T7, UniProt P00573); test: as §2; design: species or system Escherichia phage T7
T7 RNA polymerase, sequence (P00573 whole entry): as above

[13] = biological target: T7 RNA polymerase (Enterobacteria phage T7) (UniProt P00573); test: Inhibition of T7 RNA polymerase assessed as RNA product formation at 10 mM using double stranded DNA as substrate after 4 hrs in presence of NTPs by sybrGOLD staining based fluorescence assay (reference value: 100%); design: scale not given: the % may be the effect or the level left; conditions: Escherichia phage T7
[14] = biological target: T7 RNA polymerase (Enterobacteria phage T7) (UniProt P00573); test: Inhibition of T7 RNA polymerase assessed as reduction in RNA product formation at 2 mM using double stranded DNA as substrate incubated in absence of UV irradiation followed by enzyme addition measured after 4 hrs in presence of NTPs by sybrGOLD staining based fluorescence assay relative to control; conditions: Escherichia phage T7
[15] = biological target: T7 RNA polymerase (Enterobacteria phage T7) (UniProt P00573); test: Inhibition of T7 RNA polymerase assessed as reduction in RNA product formation at 2 mM using double stranded DNA as substrate after 4 hrs in absence of NTPs by sybrGOLD staining based fluorescence assay (reference value: 100%); conditions: Escherichia phage T7

## O=c1nc(OCc2ccccc2[N+](=O)[O-])ccn1[C@@H]1O[C@H](COP(=O)(O)OP(=O)(O)OP(=O)(O)O)[C@@H](O)[C@H]1O
[1]
  Activity: 39%
[2]
  Activity: 63 to 70%
[3]
  Activity: 94%
[4]
  Activity: 84%
[5]
  Activity: 73%
[6]
  Activity: 81%
[7]
  Activity: 72%
[8]
  Activity: 66%
[9]
  Activity: 60%
[10]
  Activity: 70%
[11]
  Activity: 67%
[12]
  inhibition: Dose-dependent effect
T7 RNA polymerase
  IC50: 5 mM
[13]
  Activity: 8%
[14]
  inhibition: Active

## Nc1nc(OCc2ccccc2[N+](=O)[O-])c2ncn([C@@H]3O[C@H](COP(=O)(O)OP(=O)(O)OP(=O)(O)O)[C@@H](O)[C@H]3O)c2n1
[1]
  Activity: 47%
[2]
  Activity: 60 to 64%
[3]
  Activity: 89%
[4]
  Activity: 89%
[5]
  Activity: 87%
[6]
  Activity: 41%
[7]
  Activity: 53%
[8]
  Activity: 64%
[9]
  Activity: 62%
[10]
  Activity: 62%
[11]
  Activity: 4%
[12]
  inhibition: Dose-dependent effect
T7 RNA polymerase
  IC50: 5 mM
[13]
  Activity: 13%
[15]
  inhibition: Active
[14]
  inhibition: Active
